Results as given in the NIST ThermoML archive (doi:10.1021/je020189p).
“And” between values parts separate entries of the source, which are not always exact repeats. Equal entries are not always repeated. ± gives the expanded uncertainty stated by the source.

[Cl][Tb]([Cl])[Cl] [terbium trichloride]
Liquid
Settings | vapor or sublimation pressure
921 K | 6.76e-05 ± 2.4e-05 kPa
931 K | 0.0001 ± 3.5e-05 kPa
937 K | 0.000135 ± 4.8e-05 kPa
942 K | 0.000209 ± 7.3e-05 kPa
943 K | 0.00017 ± 6e-05 kPa
946 K | 0.000166 ± 5.8e-05 kPa
950 K | 0.000204 ± 7.2e-05 kPa
953 K | 0.000219 ± 7.9e-05 kPa
957 K | 0.000331 ± 0.00012 kPa and 0.000245 ± 8.6e-05 kPa
961 K | 0.000288 ± 0.0001 kPa
965 K | 0.000302 ± 0.00011 kPa
967 K | 0.000331 ± 0.00012 kPa
971 K | 0.000501 ± 0.00018 kPa and 0.000372 ± 0.00013 kPa
975 K | 0.000407 ± 0.00014 kPa
976 K | 0.000331 ± 0.00012 kPa
979 K | 0.000447 ± 0.00016 kPa and 0.000331 ± 0.00012 kPa
980 K | 0.000501 ± 0.00018 kPa
984 K | 0.000537 ± 0.00019 kPa
988 K | 0.000832 ± 0.00029 kPa
990 K | 0.000661 ± 0.00023 kPa
992 K | 0.000501 ± 0.00018 kPa
994 K | 0.000708 ± 0.00025 kPa and 0.000741 ± 0.00026 kPa
995 K | 0.000501 ± 0.00018 kPa
998 K | 0.000794 ± 0.00028 kPa
999 K | 0.00107 ± 0.00038 kPa and 0.000912 ± 0.00032 kPa
1006 K | 0.00105 ± 0.00037 kPa and 0.000741 ± 0.00026 kPa
1009 K | 0.000741 ± 0.00026 kPa
1010 K | 0.00123 ± 0.00043 kPa and 0.00115 ± 0.0004 kPa
1011 K | 0.00148 ± 0.00052 kPa
1017 K | 0.00132 ± 0.00046 kPa [middle of 4 runs]
1020 K | 0.00158 ± 0.00056 kPa
1021 K | 0.00191 ± 0.00067 kPa
1024 K | 0.00166 ± 0.00059 kPa
1026 K | 0.00178 ± 0.00062 kPa
1027 K | 0.00123 ± 0.00045 kPa
1028 K | 0.00123 ± 0.00044 kPa
1029 K | 0.00209 ± 0.00074 kPa
1033 K | 0.00257 ± 0.0009 kPa
1034 K | 0.00214 ± 0.00075 kPa
1035 K | 0.00148 ± 0.00052 kPa
1037 K | 0.00251 ± 0.00088 kPa and 0.00158 ± 0.00056 kPa
1038 K | 0.00257 ± 0.00091 kPa
1043 K | 0.00263 ± 0.00092 kPa and 0.00191 ± 0.00067 kPa
1045 K | 0.00355 ± 0.0012 kPa
1047 K | 0.00331 ± 0.0012 kPa
1048 K | 0.00209 ± 0.00075 kPa
1053 K | 0.00447 ± 0.0016 kPa
1054 K | 0.00355 ± 0.0013 kPa and 0.00245 ± 0.00088 kPa
1056 K | 0.00372 ± 0.0013 kPa
1057 K | 0.00417 ± 0.0015 kPa
1058 K | 0.00263 ± 0.00095 kPa
1059 K | 0.00389 ± 0.0014 kPa
1064 K | 0.00575 ± 0.002 kPa
1065 K | 0.00513 ± 0.0018 kPa
1067 K | 0.00372 ± 0.0013 kPa
1071 K | 0.00676 ± 0.0024 kPa and 0.00372 ± 0.0013 kPa
1072 K | 0.00525 ± 0.0019 kPa
1073 K | 0.00525 ± 0.0019 kPa
1075 K | 0.00617 ± 0.0022 kPa
1081 K | 0.00851 ± 0.003 kPa
1082 K | 0.00537 ± 0.0019 kPa
1091 K | 0.00851 ± 0.003 kPa
1092 K | 0.0112 ± 0.0039 kPa
1093 K | 0.00708 ± 0.0025 kPa
1102 K | 0.0141 ± 0.0049 kPa
1105 K | 0.00912 ± 0.0032 kPa
1117 K | 0.0117 ± 0.0041 kPa

[Br][Gd]([Br])[Br] [gadolinium bromide (GdBr3)]
Settings | vapor or sublimation pressure
895 K, Crystal | 3.31e-05 ± 9.9e-06 kPa
910 K, Crystal | 4.17e-05 ± 1.3e-05 kPa
914 K, Crystal | 6.31e-05 ± 2e-05 kPa
917 K, Crystal | 7.76e-05 ± 2.3e-05 kPa
919 K, Crystal | 8.91e-05 ± 2.7e-05 kPa
920 K, Crystal | 7.76e-05 ± 2.4e-05 kPa
926 K, Crystal | 0.000112 ± 3.4e-05 kPa
928 K, Crystal | 7.76e-05 ± 2.4e-05 kPa
929 K, Crystal | 0.000105 ± 3.2e-05 kPa
932 K, Crystal | 0.000138 ± 4.2e-05 kPa
934 K, Crystal | 0.000135 ± 4.1e-05 kPa
937 K, Crystal | 0.000166 ± 5e-05 kPa
941 K, Crystal | 0.00017 ± 5.1e-05 kPa
945 K, Crystal | 0.000155 ± 4.7e-05 kPa and 0.000204 ± 6.2e-05 kPa
947 K, Crystal | 0.000234 ± 7.1e-05 kPa
951 K, Crystal | 0.000251 ± 7.5e-05 kPa and 0.000141 ± 4.3e-05 kPa
953 K, Crystal | 0.000324 ± 9.7e-05 kPa
956 K, Crystal | 0.000282 ± 8.5e-05 kPa and 0.000302 ± 9.1e-05 kPa
957 K, Crystal | 0.000331 ± 0.0001 kPa and 0.000224 ± 6.9e-05 kPa
959 K, Crystal | 0.000324 ± 0.0001 kPa
962 K, Crystal | 0.000447 ± 0.00014 kPa
964 K, Crystal | 0.000398 ± 0.00012 kPa
965 K, Crystal | 0.000389 ± 0.00012 kPa
967 K, Crystal | 0.000468 ± 0.00014 kPa
968 K, Crystal | 0.000324 ± 9.9e-05 kPa and 0.000282 ± 8.6e-05 kPa
969 K, Crystal | 0.000468 ± 0.00014 kPa and 0.000575 ± 0.00017 kPa
971 K, Crystal | 0.00049 ± 0.00015 kPa
973 K, Crystal | 0.00055 ± 0.00017 kPa
974 K, Crystal | 0.00055 ± 0.00017 kPa
977 K, Crystal | 0.000759 ± 0.00023 kPa
979 K, Crystal | 0.000468 ± 0.00014 kPa and 0.000676 ± 0.0002 kPa and 0.000427 ± 0.00013 kPa
980 K, Crystal | 0.000759 ± 0.00023 kPa
981 K, Crystal | 0.000708 ± 0.00021 kPa
983 K, Crystal | 0.000794 ± 0.00024 kPa
984 K, Crystal | 0.000562 ± 0.00017 kPa
986 K, Crystal | 0.000891 ± 0.00027 kPa
987 K, Crystal | 0.001 ± 0.00031 kPa
988 K, Crystal | 0.000933 ± 0.00029 kPa
989 K, Crystal | 0.000708 ± 0.00021 kPa
990 K, Crystal | 0.00107 ± 0.00032 kPa and 0.000617 ± 0.00019 kPa and 0.00115 ± 0.00035 kPa
993 K, Crystal | 0.0011 ± 0.00033 kPa
994 K, Crystal | 0.0011 ± 0.00033 kPa
996 K, Crystal | 0.00123 ± 0.00037 kPa
997 K, Crystal | 0.00145 ± 0.00044 kPa
999 K, Crystal | 0.00102 ± 0.00031 kPa and 0.00155 ± 0.00047 kPa
1000 K, Crystal | 0.00138 ± 0.00041 kPa
1001 K, Crystal | 0.00155 ± 0.00047 kPa
1002 K, Crystal | 0.000912 ± 0.00029 kPa
1003 K, Crystal | 0.00148 ± 0.00045 kPa
1004 K, Crystal | 0.00158 ± 0.00047 kPa
1006 K, Crystal | 0.00162 ± 0.00049 kPa
1008 K, Crystal | 0.00141 ± 0.00043 kPa and 0.002 ± 0.00061 kPa
1011 K, Crystal | 0.00219 ± 0.00068 kPa and 0.002 ± 0.00062 kPa
1012 K, Crystal | 0.00195 ± 0.00059 kPa
1014 K, Crystal | 0.00245 ± 0.00074 kPa and 0.00219 ± 0.00066 kPa and 0.00135 ± 0.00041 kPa
1015 K, Crystal | 0.0017 ± 0.00051 kPa and 0.00219 ± 0.00066 kPa
1018 K, Crystal | 0.00191 ± 0.00058 kPa and 0.00275 ± 0.00083 kPa
1019 K, Crystal | 0.00251 ± 0.00076 kPa
1020 K, Crystal | 0.00288 ± 0.00087 kPa
1023 K, Crystal | 0.00219 ± 0.00067 kPa and 0.00275 ± 0.00084 kPa
1025 K, Crystal | 0.00302 ± 0.00091 kPa
1026 K, Crystal | 0.002 ± 0.00065 kPa and 0.00347 ± 0.0011 kPa
1029 K, Crystal | 0.00372 ± 0.0011 kPa and 0.00275 ± 0.00084 kPa
1030 K, Crystal | 0.00363 ± 0.0011 kPa
1032 K, Crystal | 0.00295 ± 0.00089 kPa and 0.00372 ± 0.0011 kPa
1034 K, Crystal | 0.00398 ± 0.0012 kPa
1035 K, Crystal | 0.00339 ± 0.001 kPa
1036 K, Crystal | 0.00468 ± 0.0014 kPa
1041 K, Crystal | 0.00513 ± 0.0015 kPa and 0.00316 ± 0.00095 kPa
1043 K, Crystal | 0.00513 ± 0.0015 kPa
1045 K, Crystal | 0.00575 ± 0.0017 kPa
1049 K, Crystal | 0.00661 ± 0.002 kPa and 0.00417 ± 0.0013 kPa
1051 K, Crystal | 0.00661 ± 0.002 kPa
1057 K, Crystal | 0.00776 ± 0.0023 kPa and 0.00832 ± 0.0025 kPa and 0.00525 ± 0.0016 kPa
1060 K, Liquid | 0.00646 ± 0.002 kPa
1067 K, Liquid | 0.00933 ± 0.0028 kPa
1073 K, Liquid | 0.00851 ± 0.0026 kPa
1074 K, Liquid | 0.00741 ± 0.0022 kPa
1078 K, Liquid | 0.012 ± 0.0036 kPa
1085 K, Liquid | 0.0117 ± 0.0035 kPa
1087 K, Liquid | 0.0145 ± 0.0044 kPa
1091 K, Liquid | 0.0115 ± 0.0035 kPa
1096 K, Liquid | 0.0158 ± 0.0048 kPa
1098 K, Liquid | 0.0191 ± 0.0058 kPa
1099 K, Liquid | 0.0138 ± 0.0042 kPa
1105 K, Liquid | 0.0204 ± 0.0061 kPa
1108 K, Liquid | 0.0178 ± 0.0054 kPa and 0.0234 ± 0.007 kPa
1114 K, Liquid | 0.024 ± 0.0072 kPa
1119 K, Liquid | 0.0229 ± 0.0069 kPa and 0.0302 ± 0.0091 kPa
1123 K, Liquid | 0.0282 ± 0.0086 kPa
1128 K, Liquid | 0.0372 ± 0.011 kPa
1130 K, Liquid | 0.0302 ± 0.0091 kPa
1138 K, Liquid | 0.0468 ± 0.014 kPa
1140 K, Liquid | 0.0427 ± 0.013 kPa and 0.038 ± 0.011 kPa
1148 K, Liquid | 0.0513 ± 0.015 kPa
1150 K, Liquid | 0.049 ± 0.015 kPa and 0.0617 ± 0.019 kPa
1155 K, Liquid | 0.0617 ± 0.018 kPa
1159 K, Liquid | 0.0589 ± 0.018 kPa
1161 K, Liquid | 0.0794 ± 0.024 kPa
1168 K, Liquid | 0.0708 ± 0.021 kPa
1169 K, Liquid | 0.0912 ± 0.027 kPa
1179 K, Liquid | 0.0912 ± 0.027 kPa
